Data on 14 compounds can be found in patent publication US9730914B2, “3,5-diaminopyrazole kinase inhibitors” (Axikin Pharmaceuticals, Inc., priority 2014, dated 2017).

The target of experiment [1] is T1, kinase domain protein of RC kinase (RCK) (Homo sapiens, UniProt Q56UN5).
T1 construct: made in house; host or cells: E. coli BL21-derived host (T7 phage) or HEK-293
T1 sequence (Q56UN5 1061-1324 limits assumed): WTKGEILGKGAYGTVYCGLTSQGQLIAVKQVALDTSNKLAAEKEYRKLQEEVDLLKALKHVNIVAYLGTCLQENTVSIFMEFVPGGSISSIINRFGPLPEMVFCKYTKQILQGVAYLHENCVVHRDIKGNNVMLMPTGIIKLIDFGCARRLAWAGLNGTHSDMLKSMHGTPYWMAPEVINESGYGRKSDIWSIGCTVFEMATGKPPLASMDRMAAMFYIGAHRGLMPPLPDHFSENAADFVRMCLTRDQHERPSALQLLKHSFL
The experiment can be described thus: Kinase competition binding assay (Kd, qPCR readout), RC kinase. The conditions noted are these: Kd class, read-out: RCK Activity Level. The protocol:
(§1) For most assays, kinase-tagged T7 phage strains were prepared in an E. coli host derived from the BL21 strain. E. coli were grown to log-phase and infected with T7 phage and incubated with shaking at 32° C. until lysis. The lysates were centrifuged and filtered to remove cell debris. The remaining kinases were produced in HEK-293 cells and subsequently tagged with DNA for quantitative PCR (qPCR) detection.
(§2) Streptavidin-coated magnetic beads were treated with biotinylated small molecule ligands for 30 minutes at room temperature to generate affinity resins for kinase assays. The liganded beads were blocked with excess biotin and washed with blocking buffer (SeaBlock (Pierce), 1% BSA, 0.05% Tween 20, 1 mM DTT) to remove unbound ligand and to reduce nonspecific binding. Binding reactions were assembled by combining kinases, liganded affinity beads, and test compounds in 1× binding buffer (20% SeaBlock, 0.17×PBS, 0.05% Tween 20, 6 mM DTT). All reactions were performed in polystyrene 96-well plates in a final volume of 0.135 mL. The assay plates were incubated at room temperature with shaking for 1 hour and the affinity beads were washed with wash buffer (1×PBS, 0.05% Tween 20). The beads were then re-suspended in elution buffer (1×PBS, 0.05% Tween 20, 0.5 μM non-biotinylated affinity ligand) and incubated at room temperature with shaking for 30 minutes. The kinase concentration in the eluates was measured by qPCR.
(§3) An 11-point 3-fold serial dilution of each test compound was prepared in 100% DMSO at 100× final test concentration and subsequently diluted to 1× in the assay (final DMSO concentration=1%). Most Kd values were determined using a compound top concentration=30,000 nM. If the initial Kd determined was <0.5 nM, (the lowest concentration tested), the measurement was repeated with a serial dilution starting at a lower top concentration. A more detailed description of this assay may be found in Fabian, M. A. et al. Nat. Biotechnol. 2005, 23, 329-336, which is incorporated herein in its entirety.
(§4) The biological results of inhibition of the kinase domain protein of RC kinase (RCK) and JAK2 and JAK3 are summarized in Tables 2 and 3, wherein A represents a Kd of <50 nM; B represents 50 nM<Kd<100 nM; C represents 100 nM<Kd<1000 nM; and D represents a Kd>1000 nM.
(In general: Quantitative PCR measures a nucleic acid by following its amplification.)

The target of a further experiment is T2, JAK3 (Homo sapiens, UniProt P52333).
T2 construct: made in house; host or cells: E. coli BL21-derived host (T7 phage) or HEK-293
T2 sequence (P52333 811-1124 limits assumed): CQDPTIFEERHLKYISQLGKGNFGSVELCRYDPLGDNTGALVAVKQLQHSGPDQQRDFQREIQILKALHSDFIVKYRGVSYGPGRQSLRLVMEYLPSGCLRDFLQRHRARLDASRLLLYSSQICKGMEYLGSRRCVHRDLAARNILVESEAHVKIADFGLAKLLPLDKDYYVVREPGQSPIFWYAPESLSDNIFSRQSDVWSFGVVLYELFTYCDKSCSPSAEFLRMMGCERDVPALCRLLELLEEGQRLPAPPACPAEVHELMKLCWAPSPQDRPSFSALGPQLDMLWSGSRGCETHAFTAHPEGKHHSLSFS
The experiment can be described thus: Kinase competition binding assay (Kd, qPCR readout), JAK3. Conditions: for Kd: Kd class, JAK3, read-out: JAK3 Activity Level; for RCK:JAK3 selectivity ratio: ratio Kd (JAK3): Kd (RCK). The protocol:
as §1, §2, §3, §4
Similarly, RCK:JAK3 selectivity, as measured by the ratio Kd (JAK3): Kd (RCK) is represented as follows: A represents Kd (JAK3): Kd (RCK)>100; B represents 10<Kd (JAK3): Kd (RCK)<100; C represents 1<Kd (JAK3): Kd (RCK)<10; and D represents Kd (JAK3): Kd(RCK)<1.

A further experiment addresses T3, JAK2 (Homo sapiens, UniProt O60674).
T3 construct: made in house; host or cells: E. coli BL21-derived host (T7 phage) or HEK-293
As to the kind of experiment: Kinase competition binding assay (Kd, qPCR readout), JAK2. The conditions noted are these: for Kd: Kd class, JAK2, read-out: JAK2 Activity Level; for RCK:JAK2 selectivity ratio: ratio Kd (JAK2): Kd(RCK). The protocol:
as §1, §2, §3, §4
Additionally, RCK:JAK2 selectivity, as measured by the ratio Kd (JAK2): Kd(RCK) is represented as follows: A represents Kd (JAK2): Kd (RCK)>100; B represents 10<Kd(JAK2): Kd (RCK)<100; C represents 1<Kd (JAK2): Kd (RCK)<10; and D represents Kd(JAK2): Kd (RCK)<1.

T3 sequence (O60674 840-1132 limits assumed): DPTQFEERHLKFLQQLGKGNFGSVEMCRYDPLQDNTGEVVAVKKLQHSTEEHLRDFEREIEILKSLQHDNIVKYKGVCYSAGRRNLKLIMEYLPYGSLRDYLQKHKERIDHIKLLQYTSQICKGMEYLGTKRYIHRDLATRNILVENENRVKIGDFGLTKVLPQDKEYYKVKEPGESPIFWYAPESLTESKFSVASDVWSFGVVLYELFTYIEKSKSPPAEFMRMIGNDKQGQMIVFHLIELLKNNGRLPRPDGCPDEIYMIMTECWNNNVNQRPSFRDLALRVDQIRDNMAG

On to `Cc1cc(Nc2n[nH]c(NCc3cc(C)c(O)c(C)c3)c2C(N)=O)cnc1N1CCN(C)CC1` [Compound 14, 5-((4-hydroxy-3,5-dimethylbenzyl)amino)-3-((5-methyl-6-(4-methylpiperazin-1-yl)pyridin-3-yl)amino)-1H-pyrazole-4-carboxamide], for which the Kd in experiment [1] was > 1 µM. At JAK3, the Kd is > 1 µM and the “RCK:JAK3 selectivity ratio” value is given as “B (B represents 10<Kd (JAK3): Kd (RCK)<100)”. Moreover, on JAK2, the Kd is > 1 µM and the “RCK:JAK2 selectivity ratio” value is listed as “C (C represents 1<Kd (JAK2): Kd (RCK)<10)”.
For `Cc1cc(CNc2[nH]nc(Nc3ccc(N4C[C@@H](C)O[C@@H](C)C4)c(Cl)c3)c2C(N)=O)cc(C)c1O` [Compound 15, 3-((3-chloro-4-(2,6-dimethylmorpholino)phenyl)amino)-5-((4-hydroxy-3,5-dimethylbenzyl)amino)-1H-pyrazole-4-carboxamide], the Kd in experiment [1] lay within 0.05 to 0.1 µM. Also, on JAK3, the Kd is > 1 µM and the “RCK:JAK3 selectivity ratio” value is reported as “B (B represents 10<Kd (JAK3): Kd (RCK)<100)”. On JAK2, the Kd was > 1 µM and the “RCK:JAK2 selectivity ratio” value was “B (B represents 10<Kd(JAK2): Kd (RCK)<100)”.
Take `Cc1cc(CNc2[nH]nc(Nc3ccc(-c4cccnc4)cc3)c2C(N)=O)cc(C)c1O` [Compound 16, 5-((4-hydroxy-3,5-dimethylbenzyl)amino)-3-((4-(pyridin-3-yl)phenyl)amino)-1H-pyrazole-4-carboxamide]: the Kd in experiment [1] was in the range of 0.05 to 0.1 µM. For the same compound, at JAK3, the Kd is > 1 µM and the “RCK:JAK3 selectivity ratio” value is “B (B represents 10<Kd (JAK3): Kd (RCK)<100)”. For the same compound, on JAK2, the Kd was > 1 µM and the “RCK:JAK2 selectivity ratio” value is given as “B (B represents 10<Kd(JAK2): Kd (RCK)<100)”.
As to `Cc1cc(CNc2[nH]nc(Nc3ccc(N4CCN(C(C)C)CC4)c(Cl)c3)c2C(N)=O)cc(C)c1O` [Compound 17, 3-((3-chloro-4-(4-isopropylpiperazin-1-yl)phenyl)amino)-5-((4-hydroxy-3,5-dimethylbenzyl)amino)-1H-pyrazole-4-carboxamide], in experiment [1], the Kd is < 0.05 µM. At JAK3, the Kd lay within 0.1 to 1 µM and the “RCK:JAK3 selectivity ratio” value is “A (A represents Kd (JAK3): Kd (RCK)>100)”. Also, on JAK2, the Kd fell in the range of 0.1 to 1 µM and the “RCK:JAK2 selectivity ratio” value is “A (A represents Kd (JAK2): Kd (RCK)>100)”.
Consider `Cc1cc(CNc2[nH]nc(Nc3ccc(-c4ccccc4)cc3)c2C(N)=O)cc(C)c1O` [Compound 18, 3-([1,1′-biphenyl]-4-ylamino)-5-((4-hydroxy-3,5-dimethylbenzyl)amino)-1H-pyrazole-4-carboxamide], for which the Kd in experiment [1] is > 1 µM. At JAK3, the Kd is > 1 µM and the “RCK:JAK3 selectivity ratio” value is listed as “C (C represents 1<Kd (JAK3): Kd (RCK)<10)”. On JAK2, the Kd is > 1 µM and the “RCK:JAK2 selectivity ratio” value is “C (C represents 1<Kd (JAK2): Kd (RCK)<10)”.
`Cc1cc(CNc2[nH]nc(Nc3ccc(-n4ccnc4)cc3)c2C(N)=O)cc(C)c1O` [Compound 19, 3-((4-(1H-imidazol-1-yl)phenyl)amino)-5-((4-hydroxy-3,5-dimethylbenzyl)amino)-1H-pyrazole-4-carboxamide]: in experiment [1], the Kd lay within 0.1 to 1 µM. Besides, at JAK3, the Kd was > 1 µM and the “RCK:JAK3 selectivity ratio” value is recorded as “A (A represents Kd (JAK3): Kd (RCK)>100)”. Moreover, at JAK2, the Kd is > 1 µM and the “RCK:JAK2 selectivity ratio” value is given as “A (A represents Kd (JAK2): Kd (RCK)>100)”.
Regarding `COc1ccc(Nc2n[nH]c(NCc3cc(C)c(O)c(C)c3)c2C(N)=O)cc1` [Compound 20, 5-((4-hydroxy-3,5-dimethylbenzyl)amino)-3-((4-methoxyphenyl)amino)-1H-pyrazole-4-carboxamide], the Kd in experiment [1] is 0.1 to 1 µM. At JAK3, the Kd was > 1 µM and the “RCK:JAK3 selectivity ratio” value is “B (B represents 10<Kd (JAK3): Kd (RCK)<100)”. Also, on JAK2, the Kd is > 1 µM and the “RCK:JAK2 selectivity ratio” value was “C (C represents 1<Kd (JAK2): Kd (RCK)<10)”.
Consider `Cc1cc(CNc2[nH]nc(Nc3ccc(C(C)(C)C)cc3)c2C(N)=O)cc(C)c1O` [Compound 21, 3-((4-(tert-butyl)phenyl)amino)-5-((4-hydroxy-3,5-dimethylbenzyl)amino)-1H-pyrazole-4-carboxamide], for which the Kd (in experiment [1]; on JAK3; on JAK2) was > 1 µM each time. For the same compound, the “RCK:JAK2 selectivity ratio” value at JAK2 was “C (C represents 1<Kd (JAK2): Kd (RCK)<10)”.
As to `Cc1cc(CNc2[nH]nc(Nc3ccc4[nH]ncc4c3)c2C(N)=O)cc(C)c1O` [Compound 22, 3-((1H-indazol-5-yl)amino)-5-((4-hydroxy-3,5-dimethylbenzyl)amino)-1H-pyrazole-4-carboxamide], in experiment [1], the Kd is 0.1 to 1 µM. Further, at JAK3, the Kd is > 1 µM and the “RCK:JAK3 selectivity ratio” value is listed as “B (B represents 10<Kd (JAK3): Kd (RCK)<100)”. On JAK2, the Kd is > 1 µM and the “RCK:JAK2 selectivity ratio” value is “C (C represents 1<Kd (JAK2): Kd (RCK)<10)”.
Regarding `Cc1cc(CNc2[nH]nc(Nc3ccc(N4CCC(N5CCC(C)CC5)CC4)cc3)c2C(N)=O)cc(C)c1O` [Compound 23, 5-((4-hydroxy-3,5-dimethylbenzyl)amino)-3-((4-(4-methyl-[1,4′-bipiperidin]-1′-yl)phenyl)amino)-1H-pyrazole-4-carboxamide], in experiment [1], the Kd was < 0.05 µM. Moreover, at JAK3, the Kd is > 1 µM and the “RCK:JAK3 selectivity ratio” value is on record as “B (B represents 10<Kd (JAK3): Kd (RCK)<100)”. Further, at JAK2, the Kd was > 1 µM and the “RCK:JAK2 selectivity ratio” value was “B (B represents 10<Kd(JAK2): Kd (RCK)<100)”.
For the compound `Cc1cc(CNc2[nH]nc(Nc3ccc(N4CCN(C(=O)N5CCCC5)CC4)cc3)c2C(N)=O)cc(C)c1O` [Compound 24, 5-((4-hydroxy-3,5-dimethylbenzyl)amino)-3-((4-(4-(pyrrolidine-1-carbonyl)piperazin-1-yl)phenyl)amino)-1H-pyrazole-4-carboxamide], in experiment [1], the Kd is < 0.05 µM. Moreover, on JAK3, the Kd is > 1 µM and the “RCK:JAK3 selectivity ratio” value is given as “A (A represents Kd (JAK3): Kd (RCK)>100)”. On JAK2, the Kd was > 1 µM and the “RCK:JAK2 selectivity ratio” value is recorded as “B (B represents 10<Kd(JAK2): Kd (RCK)<100)”.
As to `Cc1cc(CNc2[nH]nc(Nc3ccc(N4CCC(F)CC4)cc3)c2C(N)=O)cc(C)c1O` [Compound 25, 3-((4-(4-fluoropiperidin-1-yl)phenyl)amino)-5-((4-hydroxy-3,5-dimethylbenzyl)amino)-1H-pyrazole-4-carboxamide], in experiment [1], the Kd lay within 0.1 to 1 µM. Besides, on JAK3, the Kd is > 1 µM and the “RCK:JAK3 selectivity ratio” value is given as “B (B represents 10<Kd (JAK3): Kd (RCK)<100)”. Besides, on JAK2, the Kd was > 1 µM and the “RCK:JAK2 selectivity ratio” value is listed as “C (C represents 1<Kd (JAK2): Kd (RCK)<10)”.
`Cc1cc(CNc2[nH]nc(Nc3ccc(N4C[C@@H](C)O[C@@H](C)C4)nc3)c2C(N)=O)cc(C)c1O` [Compound 26]: the Kd in experiment [1] is 0.1 to 1 µM. In addition, at JAK3, the Kd was > 1 µM and the “RCK:JAK3 selectivity ratio” value is listed as “B (B represents 10<Kd (JAK3): Kd (RCK)<100)”. On JAK2, the Kd is > 1 µM and the “RCK:JAK2 selectivity ratio” value is “B (B represents 10<Kd(JAK2): Kd (RCK)<100)”.
For the compound `Cc1cc(CNc2[nH]nc(Nc3ccc(N4CCCCC4)cc3)c2C(N)=O)cc(C)c1O` [Compound 27, 5-((4-hydroxy-3,5-dimethylbenzyl)amino)-3-((4-(piperidin-1-yl)phenyl)amino)-1H-pyrazole-4-carboxamide], the Kd in experiment [1] was 0.1 to 1 µM. Moreover, on JAK3, the Kd is > 1 µM and the “RCK:JAK3 selectivity ratio” value is “B (B represents 10<Kd (JAK3): Kd (RCK)<100)”. For the same compound, at JAK2, the Kd is > 1 µM and the “RCK:JAK2 selectivity ratio” value is “B (B represents 10<Kd(JAK2): Kd (RCK)<100)”.
